In ChEMBL document CHEMBL5576135, “Discovery of Indolo[3,2-c]isoquinoline Derivatives as Novel Top1/2 Dual Inhibitors with Orally Efficacious Antitumor Activity and Low Toxicity” (J Med Chem, 2024):
The source made the active and inactive calls. No cut-off for these calls is given here.

Assays:
MCF7 = experiment: Antiproliferative activity against human MCF7 cells assessed as inhibition of cell growth incubated for 96 hrs by MTT based ELISA; assay type: functional; conditions: MCF7, 96 h
MDA-MB-231 = experiment: Antiproliferative activity against human MDA-MB-231 cells assessed as inhibition of cell growth incubated for 96 hrs by MTT based ELISA; assay type: functional; conditions: MDA-MB-231, 96 h
PC-3 = experiment: Antiproliferative activity against human PC-3 cells assessed as inhibition of cell growth incubated for 96 hrs by MTT based ELISA; assay type: functional; conditions: PC-3, 96 h
HCT-116 [1] = experiment: Antiproliferative activity against human HCT-116 cells assessed as inhibition of cell growth incubated for 96 hrs by MTT based ELISA; assay type: functional; conditions: HCT-116, 96 h
NCI-H2228 = experiment: Antiproliferative activity against human NCI-H2228 cells assessed as inhibition of cell growth incubated for 96 hrs by MTT based ELISA; assay type: functional; conditions: NCI-H2228, 96 h
Huh-7 = experiment: Antiproliferative activity against human Huh-7 cells assessed as inhibition of cell growth incubated for 96 hrs by MTT based ELISA; assay type: functional; conditions: Huh-7, 96 h
[2] = target: T1, DNA topoisomerase 1 (Homo sapiens) (UniProt P11387); experiment: Inhibition of Topoisomerase I (unknown origin) using pBR322 DNA as substrate at 200 uM incubated for 15 mins by EtBr staining based agarose gel electrophoresis method relative to control
T1 sequence (whole entry): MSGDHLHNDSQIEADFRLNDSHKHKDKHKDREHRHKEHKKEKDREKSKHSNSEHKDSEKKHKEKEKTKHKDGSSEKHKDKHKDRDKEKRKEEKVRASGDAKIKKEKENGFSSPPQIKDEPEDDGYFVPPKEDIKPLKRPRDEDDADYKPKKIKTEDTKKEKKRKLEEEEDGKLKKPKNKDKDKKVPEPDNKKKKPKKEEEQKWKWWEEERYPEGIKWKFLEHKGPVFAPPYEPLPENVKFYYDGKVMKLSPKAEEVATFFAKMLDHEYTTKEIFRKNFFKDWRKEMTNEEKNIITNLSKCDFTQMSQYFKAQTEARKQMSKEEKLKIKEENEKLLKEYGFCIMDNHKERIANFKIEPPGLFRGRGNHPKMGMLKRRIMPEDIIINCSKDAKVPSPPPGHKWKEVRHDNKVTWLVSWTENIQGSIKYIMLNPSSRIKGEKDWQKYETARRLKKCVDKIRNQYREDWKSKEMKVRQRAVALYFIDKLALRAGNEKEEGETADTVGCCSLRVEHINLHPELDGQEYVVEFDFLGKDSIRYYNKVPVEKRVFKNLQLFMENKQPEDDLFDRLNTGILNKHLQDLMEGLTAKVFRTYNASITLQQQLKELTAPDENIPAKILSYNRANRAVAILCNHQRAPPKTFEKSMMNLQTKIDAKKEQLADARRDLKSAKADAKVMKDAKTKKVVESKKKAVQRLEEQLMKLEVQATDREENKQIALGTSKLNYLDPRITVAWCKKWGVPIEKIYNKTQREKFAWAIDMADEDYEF

[3] = target: DNA topoisomerase 2-alpha (Homo sapiens) (UniProt P11388); experiment: Inhibition of Topoisomerase 2 (unknown origin) using pBR322 DNA as substrate at 100 uM incubated for 15 mins by EtBr staining based agarose gel electrophoresis method relative to control
DNA topoisomerase 2-alpha (Homo sapiens), sequence (P11388 whole entry): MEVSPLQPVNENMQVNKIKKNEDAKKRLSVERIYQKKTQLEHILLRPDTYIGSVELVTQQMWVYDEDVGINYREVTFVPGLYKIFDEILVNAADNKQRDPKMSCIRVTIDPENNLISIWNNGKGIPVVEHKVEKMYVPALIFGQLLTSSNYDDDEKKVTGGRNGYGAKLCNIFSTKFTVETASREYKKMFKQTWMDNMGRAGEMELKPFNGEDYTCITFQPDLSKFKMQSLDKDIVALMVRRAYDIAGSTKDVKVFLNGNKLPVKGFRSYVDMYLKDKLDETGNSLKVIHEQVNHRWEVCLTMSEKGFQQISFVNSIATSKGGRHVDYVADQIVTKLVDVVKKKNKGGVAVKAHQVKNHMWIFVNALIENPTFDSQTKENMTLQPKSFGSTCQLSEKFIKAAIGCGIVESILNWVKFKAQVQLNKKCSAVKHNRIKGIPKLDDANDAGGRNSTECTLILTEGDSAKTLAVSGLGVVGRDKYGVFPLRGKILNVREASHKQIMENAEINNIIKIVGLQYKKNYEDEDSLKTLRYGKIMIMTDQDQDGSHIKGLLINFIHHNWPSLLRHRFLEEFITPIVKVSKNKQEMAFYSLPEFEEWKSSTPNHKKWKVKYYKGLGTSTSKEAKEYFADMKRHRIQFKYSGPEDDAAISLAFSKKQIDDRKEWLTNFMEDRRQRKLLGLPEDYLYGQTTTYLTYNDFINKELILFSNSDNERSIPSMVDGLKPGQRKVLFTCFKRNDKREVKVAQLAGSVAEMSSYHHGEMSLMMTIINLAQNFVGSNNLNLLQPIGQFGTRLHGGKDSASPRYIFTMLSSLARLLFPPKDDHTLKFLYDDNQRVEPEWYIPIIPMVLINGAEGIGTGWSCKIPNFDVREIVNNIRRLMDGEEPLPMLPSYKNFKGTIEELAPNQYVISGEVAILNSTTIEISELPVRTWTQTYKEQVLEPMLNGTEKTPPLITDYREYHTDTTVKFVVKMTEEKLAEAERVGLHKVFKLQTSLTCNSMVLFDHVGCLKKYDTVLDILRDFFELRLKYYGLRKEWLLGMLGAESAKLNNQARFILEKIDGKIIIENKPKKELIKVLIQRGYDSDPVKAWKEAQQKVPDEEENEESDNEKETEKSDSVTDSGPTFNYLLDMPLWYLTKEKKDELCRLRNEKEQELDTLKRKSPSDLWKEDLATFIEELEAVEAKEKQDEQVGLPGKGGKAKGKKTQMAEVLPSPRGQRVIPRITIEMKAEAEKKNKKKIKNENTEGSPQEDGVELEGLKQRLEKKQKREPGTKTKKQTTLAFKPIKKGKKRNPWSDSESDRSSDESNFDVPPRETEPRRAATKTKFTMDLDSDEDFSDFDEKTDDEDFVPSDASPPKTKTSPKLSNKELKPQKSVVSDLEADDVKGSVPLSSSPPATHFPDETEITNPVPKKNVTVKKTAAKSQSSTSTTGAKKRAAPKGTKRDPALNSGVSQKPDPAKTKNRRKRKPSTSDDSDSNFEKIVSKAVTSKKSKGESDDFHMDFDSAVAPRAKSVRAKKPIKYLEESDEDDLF

[4] = target: T1, DNA topoisomerase 1 (Homo sapiens); experiment: Inhibition of Topoisomerase I (unknown origin) using pBR322 DNA as substrate at 50 uM incubated for 15 mins by EtBr staining based agarose gel electrophoresis method
[5] = target: DNA topoisomerase 2-alpha (Homo sapiens) (UniProt P11388); experiment: Inhibition of Topoisomerase 2 (unknown origin) using pBR322 DNA as substrate at 50 uM incubated for 15 mins by EtBr staining based agarose gel electrophoresis method
[6] = target: T1, DNA topoisomerase 1 (Homo sapiens); experiment: Inhibition of Topoisomerase I (unknown origin) using pBR322 DNA as substrate at 10 uM incubated for 15 mins by EtBr staining based agarose gel electrophoresis method
NCI-H1975 = experiment: Antiproliferative activity against human NCI-H1975 cells assessed as inhibition of cell growth incubated for 96 hrs by MTT based ELISA; assay type: functional; conditions: NCI-H1975, 96 h
NCI-H1650 = experiment: Antiproliferative activity against human NCI-H1650 cells assessed as inhibition of cell growth incubated for 96 hrs by MTT based ELISA; assay type: functional; conditions: NCI-H1650, 96 h
A549 = experiment: Antiproliferative activity against human A549 cells assessed as inhibition of cell growth incubated for 96 hrs by MTT based ELISA; assay type: functional; conditions: A549, 96 h
PC-9 = experiment: Antiproliferative activity against human PC-9 cells assessed as inhibition of cell growth incubated for 96 hrs by MTT based ELISA; assay type: functional; conditions: PC-9, 96 h
NCI-H446 [7] = experiment: Antiproliferative activity against human NCI-H446 cells assessed as inhibition of cell growth incubated for 96 hrs by MTT based ELISA; assay type: functional; conditions: NCI-H446, 96 h
DU-145 = experiment: Antiproliferative activity against human DU-145 cells assessed as inhibition of cell growth incubated for 96 hrs by MTT based ELISA; assay type: functional; conditions: DU-145, 96 h
[8] = Antiproliferative activity against human BEAS-2B cells assessed as inhibition of cell growth incubated for 96 hrs by MTT based ELISA; assay type: toxicity
NCI-H446 [9] = experiment: Induction of DNA damage in human NCI-H446 cells assessed as tail DNA at 8 uM incubated for 48 hrs by comet assay relative to control; assay type: functional
NCI-H446 [10] = experiment: Induction of DNA damage in human NCI-H446 cells assessed as increase in intracellular gamma-H2AX level at 8 uM incubated for 48 hrs by Western blotting analysis; assay type: functional, cell-based
NCI-H446 [11] = experiment: Induction of DNA damage in human NCI-H446 cells assessed as increase in intracellular ROS level at 8 uM incubated for 6 hrs by DCFHDA probe based fluorescence microscopic analysis; assay type: functional, cell-based
NCI-H446 [12] = experiment: Induction of cell cycle arrest in human NCI-H446 cells assessed as accumulation of cells at S phase at 8 uM incubated for 48 hrs by propidium iodide/RNase A staining based flow cytometry; assay type: functional
NCI-H446 [13] = experiment: Induction of cell cycle arrest in human NCI-H446 cells assessed as accumulation of cells at G2/M phase at 8 uM incubated for 48 hrs by propidium iodide/RNase A staining based flow cytometry; assay type: functional
NCI-H446 [14] = experiment: Induction of apoptosis in human NCI-H446 cells at 8 uM incubated for 48 hrs by Annexin V-FITC/PI staining based flow cytometry relative to control; assay type: functional
NCI-H446 [15] = experiment: Inhibition of colony formation in human NCI-H446 cells at 1 uM incubated for 24 hrs by crystal violet staining based analysis relative to control; assay type: functional
NCI-H446 [16] = experiment: Inhibition of colony formation in human NCI-H446 cells at 2 uM incubated for 24 hrs by crystal violet staining based analysis relative to control; assay type: functional
NCI-H446 [17] = experiment: Inhibition of cell migration in human NCI-H446 cells at 4 uM incubated for 48 hrs by phase-contrast microscopic analysis relative to control; assay type: functional
[18] = Toxicity in Kunming mouse assessed as reduction in body weight at 30 mg/kg,ip administrated for 3 days; assay type: organism-based; parameters: scale not given: the % may be the effect or the level left; conditions: in vivo, 72 h, time 3 day
HCT-116 [19] = experiment: Antitumor activity against human HCT-116 cells xenografted with BALB/c mouse assessed as tumor growth inhibition at 20 mg/kg,ip administrated twice weekly for 21 days relative to control; assay type: functional, organism-based; conditions: time 21.0 day
HCT-116 [20] = experiment: Antitumor activity against human HCT-116 cells xenografted with BALB/c mouse assessed as tumor growth inhibition by measuring T/C ratio at 20 mg/kg,ip administrated twice weekly for 21 days; assay type: functional, organism-based; conditions: time 21.0 day
NCI-H446 [21] = experiment: Antitumor activity against human NCI-H446 cells xenografted with BALB/c mouse assessed as tumor growth inhibition at 4 mg/kg,ip administrated 3 times weekly for 21 days in presence of cisplatin relative to control; assay type: functional; conditions: NCI-H446, 504 h, time 21 day, read-out: TGI
NCI-H446 [22] = experiment: Antitumor activity against human NCI-H446 cells xenografted with BALB/c mouse assessed as tumor growth inhibition by measuring T/C ratio at 4 mg/kg,ip administrated 3 times weekly for 21 days in presence of cisplatin; assay type: functional; conditions: time 21 day
[23] = target: T1, DNA topoisomerase 1 (Homo sapiens); experiment: Inhibition of Topoisomerase I (unknown origin) using pBR322 DNA as substrate at 5 uM incubated for 15 mins by EtBr staining based agarose gel electrophoresis method
[24] = target: T1, DNA topoisomerase 1 (Homo sapiens); experiment: Inhibition of Topoisomerase I (unknown origin) using pBR322 DNA as substrate at 1 uM incubated for 15 mins by EtBr staining based agarose gel electrophoresis method
[25] = target: T1, DNA topoisomerase 1 (Homo sapiens); experiment: Inhibition of Topoisomerase I (unknown origin) using pBR322 DNA as substrate at 2 uM incubated for 15 mins by EtBr staining based agarose gel electrophoresis method
[26] = target: DNA topoisomerase 2-alpha (Homo sapiens) (UniProt P11388); experiment: Inhibition of Topoisomerase 2 (unknown origin) using pBR322 DNA as substrate at 0.5 uM incubated for 15 mins by EtBr staining based agarose gel electrophoresis method
[27] = target: DNA topoisomerase 2-alpha (Homo sapiens) (UniProt P11388); experiment: Inhibition of Topoisomerase 2 (unknown origin) using pBR322 DNA as substrate at 10 uM incubated for 15 mins by EtBr staining based agarose gel electrophoresis method
[28] = Toxicity in Kunming mouse assessed as lethal dose at po administration for 2 weeks; assay type: organism-based; conditions: in vivo
[29] = Toxicity in Kunming mouse assessed as reduction in body weight at 100 mg/kg,po administrated for 3 days; assay type: organism-based; parameters: scale not given: the % may be the effect or the level left; conditions: in vivo, 72 h, time 3 day

| SMILES | IC50 (MCF7) [nM] | IC50 (MDA-MB-231) [nM] | IC50 (PC-3) [nM] | IC50 (HCT-116 [1]) [nM] | IC50 (NCI-H2228) [nM] | IC50 (Huh-7) [nM] | inhibition [2] [%] | inhibition [3] [%] | inhibition [4] | inhibition [5] | inhibition [6] | also measured |
| --- | --- | --- | --- | --- | --- | --- | --- | --- | --- | --- | --- | --- |
| CN(C)CCCn1c2cc3c(cc2c2[nH]c(=O)c4ccccc4c21)OCO3 | 600 | 480 | 630 | 220 | 1160 | 1240 | > 95 | > 95 | Active | Active | Active | – |
| O=C(CCCn1c2cc3c(cc2c2ncc4ccccc4c21)OCO3)NO | 2320 | 950 | 1550 | 1320 | 3070 | 2890 | > 95 | > 95 | Active | Active | Active | – |
| CCc1c2c(nc3ccc(OC(=O)N4CCC(N5CCCCC5)CC4)cc13)-c1cc3c(c(=O)n1C2)COC(=O)[C@]3(O)CC [IRINOTECAN] | 4590 | > 10000 | 3670 | 3160 | 3430 | > 10000 | – | – | – | – | – | IC50 (NCI-H1975): 3410 nM; IC50 (NCI-H1650): 6800 nM; IC50 (A549): > 10000 nM; IC50 (PC-9): 3840 nM; IC50 (NCI-H446 [7]): 780 nM; IC50 (DU-145): 960 nM; IC50 at 96 h [8]: > 10000 nM; Activity (NCI-H446 [9]): 27.8%; Activity (NCI-H446 [10]): Active; Activity (NCI-H446 [11]): Active; Activity (NCI-H446 [12]): 59.3%; Activity (NCI-H446 [13]): 59.3%; Activity (NCI-H446 [14]): 5.3%; inhibition at 1 µM (NCI-H446 [15]): 85.8%; inhibition at 2 µM (NCI-H446 [16]): 33.7%; inhibition at 4 µM (NCI-H446 [17]): 54.5%; Activity [18]: > 10%; inhibition (HCT-116 [19]): Active; inhibition (HCT-116 [20]): Active |
| CN(C)CCCn1c2cc3c(cc2c2nc(Cl)c4ccccc4c21)OCO3 | 370 | 560 | 470 | 260 | 960 | 940 | > 95 | > 95 | Active | Active | Active | – |
| COc1cc([C@@H]2c3cc4c(cc3[C@@H](O[C@@H]3O[C@@H]5CO[C@@H](C)O[C@H]5[C@H](O)[C@H]3O)[C@H]3COC(=O)[C@H]23)OCO4)cc(OC)c1O [ETOPOSIDE] | 1180 | 2870 | 1590 | 2000 | 2510 | 3800 | – | – | – | – | – | IC50 (NCI-H1975): 340 nM; IC50 (NCI-H1650): 2650 nM; IC50 (A549): > 10000 nM; IC50 (PC-9): 2220 nM; IC50 (NCI-H446 [7]): 240 nM; IC50 (DU-145): 1650 nM; IC50 at 96 h [8]: > 10000 nM; Activity [18]: > 10%; inhibition in vivo at 4 mg/kg (NCI-H446 [21]): 27.7%; T/C (NCI-H446 [22]): 68.2% |
| O=C(CCCn1c2cc3c(cc2c2nc(Cl)c4ccccc4c21)OCO3)NO | 2860 | 1640 | 2440 | 1870 | 3640 | 4100 | > 95 | > 95 | Active | Active | Active | inhibition [23]: Active; inhibition [24]: Active; inhibition [25]: Active; inhibition [26]: Active; inhibition [27]: Active |
| COc1ccc2c(c1)c1nc(Cl)c3ccccc3c1n2CCCC(=O)NO | 1510 | 980 | 1660 | 740 | 2390 | 2980 | > 95 | > 95 | Active | Active | Active | – |
| CC[C@@]1(O)C(=O)OCc2c1cc1n(c2=O)Cc2cc3c(CN(C)C)c(O)ccc3nc2-1 [TOPOTECAN] | – | – | – | – | – | – | – | – | – | – | – | LD50 at 336 h [28]: < 1000 mg/kg; Activity [29]: > 10% |
